Source: patent publication US9920049B2 (priority 2014, dated 2018)
pIC50: −log10 of the molar value.

System: HBsAg
Assay: HBsAg assay (CLIA of secreted HBsAg in HepG2.2.15 culture supernatant)
Assay type: cell-based, HBV
Settings: Hepatitis B virus
Experimental: HepG2.2.15 cells (Acs et al. Proc Natl Acad Sci USA, 84, (1987), 4641-4), a constitutively HBV-expressing cell line were cultured in DMEM+Glutamax-I medium (Invitrogen, Carlsbad, Calif., USA), supplemented with 10% fetal bovine serum (Invitrogen) and G418 (Invitrogen) at a final concentration of 200 mg/L and maintained in 5% CO2 at 37° C.
HepG2.2.15 cells were seeded in duplicate into white, 96-well plates at 1.5×10^4 cells/well. The cells were treated with a three-fold serial dilution series of the compounds in DMSO. The final DMSO concentration in all wells was 1% and DMSO was used as no drug control.
The HBsAg chemiluminescence immunoassay (CLIA) kit (Autobio Diagnostics Co., Zhengzhou, China, Catalog number: CL0310-2) was used to measure the levels of secreted HBV antigens semi-quantitatively. For the detection 50 μL/well culture supernatant was used and HBsAg was quantified using HBsAg chemiluminescence immunoassay (CLIA) kit (Autobio Diagnostics Co., Zhengzhou, China, Catalog number: CL0310-2), 50 μl of the supernatant was transferred to the CLIA assay plate and 50 μL of enzyme conjugate reagent was added into each well. The plates were sealed and gently agitated for 1 hour at room temperature. The supernatant-enzyme-mixture was discarded and wells were washed 6 times with 300 μL of PBS. The residual liquid was removed by plating the CLIA plate right side down on absorbent tissue paper. 25 μL of substrates A and B were added to each well. Luminance was measured using a luminometer (Mithras LB 940 Multimode Microplate Reader) after 10 minutes incubation. Dose-response curves were generated and the IC50 value was extrapolated by using the E-WorkBook Suite (ID Business Solutions Ltd., Guildford, UK).
The compounds of the present invention were tested for their capacity to inhibit HBsAg as described herein.

CC[C@@H]1Cc2cc(OC)c(OC)cc2-c2cc(=O)c(C(=O)Nc3nnn[nH]3)cn21 [Example 31, (6R)-6-ethyl-9,10-dimethoxy-2-oxo-N-(1H-tetrazol-5-yl)-6,7-dihydrobenzo[a]quinolizine-3-carboxamide]
pIC50: 4.36

COc1cc2c(cc1OC)-c1cc(=O)c(C(=O)Nc3nnn[nH]3)cn1C(CC(F)(F)F)C2 (stereo not shown) [Example 35, 9,10-dimethoxy-2-oxo-N-(1H-tetrazol-5-yl)-6-(2,2,2-trifluoroethyl)-6,7-dihydrobenzo[a]quinolizine-3-carboxamide]
pIC50: 4.89

CCC1Cc2cc(OCCCOC)c(OC)cc2-c2cc(=O)c(CO)cn21 (stereo not shown) [Example 20, 6-ethyl-3-(hydroxymethyl)-10-methoxy-9-(3-methoxy-propoxy)-6,7-dihydrobenzo[a]quinolizin-2-one]
pIC50: 4.65

CCC1Cc2cc(OCCCOC)c(OC)cc2-c2cc(=O)c(C(=O)NC(C)COC)cn21 (stereo not shown) [Example 16, 6-ethyl-10-methoxy-N-(2-methoxy-1-methyl-ethyl)-9-(3-methoxypropoxy)-2-oxo-6,7-dihydrobenzo[a]quinolizine-3-carboxamide]
pIC50: 4.74
